Laboratory results from article PMC7413254 (Nature Communications, 2020).
Like-named read-outs stand apart in the source and are kept apart here.

Experiments:
non-expressing oocytes [1] = test: cells; type: cell-based, Xenopus laevis; settings: Xenopus laevis, total [3H]CQ transport; for inhibition at 500 µM: [test solute] = 0.5 mM; for inhibition at 1000 µM: [test solute] = 1 mM; for inhibition at 2000 µM: [test solute] = 2 mM
In short: (§1)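 ND96, pH 5.5, 1.5 h, 27.5 °C; uptake direction acidic outside → oocyte cytosol, mimicking efflux from digestive vacuole. Ice-cold wash stop, 10% SDS lysis, scintillation counting. Ten oocytes/treatment, ≥4 independent experiments.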

PfCRT [2] = test: Influx of VF-6 via PfCRT into the oocyte, solutes tested as potential co-substrates; type: cell-based, Plasmodium falciparum; design: key: X: Compounds that have been tested as potential co-substrates but are not required for influx of VF-6 via PfCRT into the oocyte; settings: X marks the solute
non-expressing oocytes [3] = type: cell-based, Xenopus laevis; settings: total [3H]CQ transport; for Uptake of [3H]CQ (% non-expressing oocyte control), trans-stimulation: non-expressing oocytes, normalised to the oocyte type control; for Uptake of [3H]CQ (% PfCRTDd2 control), trans-stimulation, non-expressing oocytes: mean ± SEM, SEM
In short: (§2)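 Oocytes (ten per treatment, ≥4 independent frogs/days) were preloaded by injecting VF-6 in 25 nL ND96 at pH 5.0, 5.5, 6.0 or 7.0, or Na^+-free choline buffer, then uptake run 1.5 h, 27.5 °C, ND96 pH 5.5 by default. Internal concentrations assumed ~400 nL oocyte volume.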

PfCRT [4] = test: Potential co-substrates tested for influx of VF-6 via PfCRT into the oocyte; type: cell-based, Plasmodium falciparum; design: key: X: Compounds that have been tested as potential co-substrates but are not required for influx of VF-6 via PfCRT into the oocyte
PfCRT^3D7 [5] = target: T1, PfCRT^3D7 (Plasmodium falciparum, UniProt Q8IBZ9); test: cell-based; type: cell-based; settings: total [3H]CQ transport; for inhibition at 500 µM: [test solute] = 0.5 mM; for inhibition at 1000 µM: [test solute] = 1 mM; for inhibition at 2000 µM: [test solute] = 2 mM
In short: as §1

PfCRT^Dd2 [6] = target: T2, PfCRT^Dd2 (Plasmodium falciparum, UniProt Q9N623, A220S/I356T/K76T/M74I/N326S/N75E/Q271E/R371I); test: [3H]CQ uptake into Xenopus oocytes, cis-inhibition by unlabelled solute; type: cell-based
In short: as §1

PfCRT^Ecu1110 [7] = target: T3, PfCRT^Ecu1110 (Plasmodium falciparum, UniProt Q9N623, A220S/I356L/K76T/N326D); test: as above; type: cell-based
In short: as §1

PfNT1 = target: T4, PfNT1 (Plasmodium falciparum, UniProt Q8IDM6); test: cell-based; type: cell-based; settings: for activity at 5000 µM: total [3H]CQ transport
T4 construct: expressed in transfected cells; host or cells: Xenopus laevis oocytes (stage V-VI), cRNA-injected
In short: as §2

PfCRT^Dd2 [8] = target: T2, PfCRT^Dd2; test: cell-based; type: cell-based; settings: […]; for activity at 45000 µM: [test solute]i = 45 mM (30 mM for some solutes due to solubility)
In short: as §2

PfCRT^Ecu1110 [9] = target: T3, PfCRT^Ecu1110; test: cell-based; type: cell-based; settings: […]
In short: as §2

PfCRT^3D7 [10] = target: T1, PfCRT^3D7; test: cell-based; type: cell-based
In short: as §2

[11] = Oocyte, mean ± SEM, SEM, read-out: Uptake of [3H]CQ (% PfCRTDd2 control), cis-inhibition, non-expressing oocytes
[12] = non-expressing oocytes, normalised to the oocyte type control, read-out: Uptake of [3H]CQ (% non-expressing oocyte control), cis-inhibition
[13] = PfCRT3D7 oocytes, normalised to the oocyte type control, read-out: Uptake of [3H]CQ (% PfCRT3D7 control), cis-inhibition
[14] = mean ± SEM, SEM, read-out: Uptake of [3H]CQ (% PfCRTDd2 control), cis-inhibition, PfCRT3D7
[15] = read-out: PfCRT-mediated [3H]CQ transport, cis-inhibition (% PfCRTDd2 control)
[16] = read-out: Uptake of [3H]CQ (% PfCRTDd2 control), cis-inhibition, PfCRTDd2, SEM
[17] = read-out: PfCRT-mediated [3H]CQ transport, cis-inhibition (% PfCRTEcu1110 control)
[18] = read-out: Uptake of [3H]CQ (% PfCRTDd2 control), cis-inhibition, PfCRTEcu1110, SEM
[19] = read-out: Uptake of [3H]CQ (% PfCRTEcu1110 control), cis-inhibition
[20] = read-out: [3H]CQ transport (% PfCRTEcu1110 control), cis-inhibition, PfCRTEcu1110, SEM

T2 sequence (Q9N623 whole entry A220S/I356T/K76T/M74I/N326S/N75E/Q271E/R371I): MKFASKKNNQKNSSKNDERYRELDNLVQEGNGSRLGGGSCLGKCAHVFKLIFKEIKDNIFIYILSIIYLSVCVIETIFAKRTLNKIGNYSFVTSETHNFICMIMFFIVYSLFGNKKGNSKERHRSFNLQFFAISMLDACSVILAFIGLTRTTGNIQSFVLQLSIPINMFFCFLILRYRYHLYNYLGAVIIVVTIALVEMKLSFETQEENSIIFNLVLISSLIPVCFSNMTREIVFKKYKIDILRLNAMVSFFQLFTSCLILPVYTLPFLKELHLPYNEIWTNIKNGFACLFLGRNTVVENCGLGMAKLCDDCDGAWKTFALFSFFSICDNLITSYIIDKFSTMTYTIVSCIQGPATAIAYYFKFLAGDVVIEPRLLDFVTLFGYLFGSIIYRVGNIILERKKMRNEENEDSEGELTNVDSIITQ
T4 sequence (Q8IDM6 whole entry): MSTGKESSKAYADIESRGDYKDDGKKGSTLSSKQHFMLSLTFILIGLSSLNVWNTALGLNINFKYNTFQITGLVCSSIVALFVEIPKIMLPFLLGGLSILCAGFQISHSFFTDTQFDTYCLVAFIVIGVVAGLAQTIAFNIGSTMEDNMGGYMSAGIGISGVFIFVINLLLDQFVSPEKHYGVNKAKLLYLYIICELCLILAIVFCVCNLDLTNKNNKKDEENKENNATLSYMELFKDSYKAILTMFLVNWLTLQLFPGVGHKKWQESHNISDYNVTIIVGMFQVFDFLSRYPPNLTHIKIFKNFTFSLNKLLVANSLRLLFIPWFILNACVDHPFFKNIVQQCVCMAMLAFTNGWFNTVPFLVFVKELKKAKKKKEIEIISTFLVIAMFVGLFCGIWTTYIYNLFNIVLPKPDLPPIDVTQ
T3 sequence (Q9N623 whole entry A220S/I356L/K76T/N326D): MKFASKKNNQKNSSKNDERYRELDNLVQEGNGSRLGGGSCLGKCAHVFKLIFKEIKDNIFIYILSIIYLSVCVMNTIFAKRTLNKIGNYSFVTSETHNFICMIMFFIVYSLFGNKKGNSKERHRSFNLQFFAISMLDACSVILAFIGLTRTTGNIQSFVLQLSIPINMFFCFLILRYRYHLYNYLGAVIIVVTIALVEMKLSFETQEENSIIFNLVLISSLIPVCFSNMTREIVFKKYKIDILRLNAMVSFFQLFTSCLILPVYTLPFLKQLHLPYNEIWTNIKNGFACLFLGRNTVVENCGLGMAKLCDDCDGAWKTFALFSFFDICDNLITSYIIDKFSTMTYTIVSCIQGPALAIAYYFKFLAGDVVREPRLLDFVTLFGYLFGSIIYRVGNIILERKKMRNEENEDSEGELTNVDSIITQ
T1 sequence (Q8IBZ9 59-398): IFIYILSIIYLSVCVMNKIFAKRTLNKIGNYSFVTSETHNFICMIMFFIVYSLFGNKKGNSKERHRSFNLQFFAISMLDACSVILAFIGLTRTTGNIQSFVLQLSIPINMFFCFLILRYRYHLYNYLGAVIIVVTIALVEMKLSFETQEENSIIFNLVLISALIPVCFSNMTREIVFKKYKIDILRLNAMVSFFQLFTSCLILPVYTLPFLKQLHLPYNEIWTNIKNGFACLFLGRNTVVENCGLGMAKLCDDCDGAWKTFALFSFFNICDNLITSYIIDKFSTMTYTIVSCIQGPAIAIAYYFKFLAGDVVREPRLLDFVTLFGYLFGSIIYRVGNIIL

## N[C@@H](Cc1ccccc1)C(=O)O [L-phenylalanine]
non-expressing oocytes [1]; [11]
  inhibition at 500 µM: 3 ± 0.06%
  inhibition at 1000 µM: 2.7 ± 0.04%
  inhibition at 2000 µM: 2.3 ± 0.1%
non-expressing oocytes [1]; [12]
  inhibition at 500 µM: 98 ± 6.3%
  inhibition at 1000 µM: 100 ± 4.6%
  inhibition at 2000 µM: 99 ± 3.2%
PfCRT [2]
  Compounds that have been tested as potential co-substrates but are not required for influx of VF-6 via PfCRT into the oocyte: X
non-expressing oocytes [3]; [test solute]i = 5 mM
  Uptake of [3H]CQ (% non-expressing oocyte control), trans-stimulation: 98 ± 2.6 % non-expressing oocyte control
non-expressing oocytes [3]; [test solute]i = 45 mM (30 mM for some solutes due to solubility)
  Uptake of [3H]CQ (% non-expressing oocyte control), trans-stimulation: 99 ± 2.7 % non-expressing oocyte control
non-expressing oocytes [3]; [test solute]i = 5 mM (intracellular)
  Uptake of [3H]CQ (% PfCRTDd2 control), trans-stimulation, non-expressing oocytes: 2.4 ± 0.03 % PfCRTDd2 control
non-expressing oocytes [3]; [test solute]i = 45 mM (intracellular; 30 mM for some solutes due to solubility)
  Uptake of [3H]CQ (% PfCRTDd2 control), trans-stimulation, non-expressing oocytes: 2.2 ± 0.09 % PfCRTDd2 control
PfCRT [4]
  Tested as potential co-substrate but not required for influx of VF-6 via PfCRT into the oocyte: X
PfCRT^3D7 [5]; [13]
  inhibition at 500 µM: 99 ± 4.3%
  inhibition at 1000 µM: 99 ± 5.2%
  inhibition at 2000 µM: 100 ± 3.6%
PfCRT^3D7 [5]; [14]
  inhibition at 500 µM: 3.1 ± 0.06%
  inhibition at 1000 µM: 3.1 ± 0.06%
  inhibition at 2000 µM: 3.1 ± 0.07%
PfCRT^Dd2 [6]; [15]
  inhibition at 500 µM: 94 ± 2.7%
  inhibition at 1000 µM: 95 ± 2.7%
PfCRT^Dd2 [6]; [16]
  inhibition at 500 µM: 96 ± 3.6%
  inhibition at 1000 µM: 97 ± 3.3%
  inhibition at 2000 µM: 98 ± 2.2%
PfCRT^Ecu1110 [7]; [17]
  inhibition at 500 µM: 95 ± 3.6%
  inhibition at 1000 µM: 95 ± 0.3%
PfCRT^Ecu1110 [7]; [18]
  inhibition at 500 µM: 32 ± 2.5%
  inhibition at 1000 µM: 32 ± 1.5%
  inhibition at 2000 µM: 32 ± 1.5%
PfCRT^Ecu1110 [7]; [19]
  inhibition at 500 µM: 97 ± 2.1%
  inhibition at 1000 µM: 96 ± 1.8%
  inhibition at 2000 µM: 98 ± 2.4%
PfCRT^Ecu1110 [7]; [20]
  inhibition at 500 µM: 29 ± 0.7%
  inhibition at 1000 µM: 29 ± 1.7%
  inhibition at 2000 µM: 29 ± 0.5%
PfNT1; PfNT1 oocytes, [test solute]i = 5 mM, normalised to the oocyte type control, read-out: Uptake of [3H]CQ (% PfNT1 control), trans-stimulation
  activity at 5000 µM: 99 ± 2.2%
PfNT1; SEM, read-out: Uptake of [3H]CQ (% PfCRTDd2 control), trans-stimulation, PfNT1
  activity at 45000 µM: 2.8 ± 0.07%
PfNT1; read-out: Uptake of [3H]CQ (% PfNT1 control), trans-stimulation
  activity at 45000 µM: 100 ± 2.5%
PfNT1; [test solute]i = 5 mM (intracellular), mean ± SEM, SEM, read-out: Uptake of [3H]CQ (% PfCRTDd2 control), trans-stimulation, PfNT1
  activity at 5000 µM: 3 ± 0.01%
PfCRT^Dd2 [8]; pH 5.5, read-out: PfCRT-mediated [3H]CQ transport, trans-stimulation (% PfCRTDd2 control), [test solute]i = 5 mM (intracellular), PfCRTDd2 oocytes, normalised to oocyte type control
  activity at 5000 µM: 99 ± 3.9%
PfCRT^Dd2 [8]; pH 5.5, read-out: Uptake of [3H]CQ (% PfCRTDd2 control), trans-stimulation, PfCRTDd2, total [3H]CQ transport, [test solute]i = 5 mM (intracellular), mean ± SEM, SEM
  activity at 5000 µM: 101 ± 2.4%
PfCRT^Dd2 [8]; pH 5.5, read-out: Uptake of [3H]CQ (% PfCRTDd2 control), trans-stimulation, PfCRTDd2 oocytes, [test solute]i = 5 mM, total [3H]CQ transport, normalised to the oocyte type control
  activity at 5000 µM: 101 ± 2.4%
PfCRT^Dd2 [8]; pH 5.5, read-out: Uptake of [3H]CQ (% PfCRTDd2 control), trans-stimulation, PfCRTDd2 oocytes, total [3H]CQ transport, normalised to the oocyte type control
  activity at 45000 µM: 100 ± 2.2%
PfCRT^Dd2 [8]; pH 5.5, read-out: [3H]CQ transport (% PfCRTDd2 control), trans-stimulation, PfCRTDd2, trans-stimulation, [test solute]i = 5 mM (injected), PfCRT-mediated component (background subtracted), mean ± SEM, SEM
  activity at 5000 µM: 99 ± 3.9%
PfCRT^Dd2 [8]; pH 5.5, read-out: [3H]CQ transport (% PfCRTDd2 control), trans-stimulation, PfCRTDd2, trans-stimulation, PfCRT-mediated component (background subtracted), mean ± SEM, SEM
  activity at 45000 µM: 98 ± 3%
PfCRT^Ecu1110 [9]; pH 5.5, read-out: PfCRT-mediated [3H]CQ transport, trans-stimulation (% PfCRTEcu1110 control), [test solute]i = 5 mM (intracellular), PfCRTEcu1110 oocytes, normalised to oocyte type control
  activity at 5000 µM: 96 ± 1.9%
PfCRT^Ecu1110 [9]; pH 5.5, read-out: Uptake of [3H]CQ (% PfCRTEcu1110 control), trans-stimulation, PfCRTEcu1110 oocytes, [test solute]i = 5 mM, total [3H]CQ transport, normalised to the oocyte type control
  activity at 5000 µM: 98 ± 3.4%
PfCRT^Ecu1110 [9]; pH 5.5, read-out: Uptake of [3H]CQ (% PfCRTEcu1110 control), trans-stimulation, PfCRTEcu1110 oocytes, [test solute]i = 45 mM (30 mM for some solutes due to solubility), total [3H]CQ transport, normalised to the oocyte type control
  activity at 45000 µM: 101 ± 3.2%
PfCRT^Ecu1110 [9]; read-out: Uptake of [3H]CQ (% PfCRTDd2 control), trans-stimulation, PfCRTEcu1110, total [3H]CQ transport, [test solute]i = 5 mM (intracellular), mean ± SEM, SEM
  activity at 5000 µM: 35 ± 1.3%
PfCRT^Ecu1110 [9]; read-out: Uptake of [3H]CQ (% PfCRTDd2 control), trans-stimulation, PfCRTEcu1110, total [3H]CQ transport, [test solute]i = 45 mM (intracellular; 30 mM for some solutes due to solubility), mean ± SEM, SEM
  activity at 45000 µM: 36 ± 1.7%
PfCRT^3D7 [10]; PfCRT3D7 oocytes, [test solute]i = 5 mM, total [3H]CQ transport, normalised to the oocyte type control, read-out: Uptake of [3H]CQ (% PfCRT3D7 control), trans-stimulation
  activity at 5000 µM: 98 ± 3.3%
PfCRT^3D7 [10]; SEM
  [3H]CQ transport (% PfCRT3D7 control), trans-stimulation, PfCRT3D7: 0.3 ± 0.01 % PfCRT3D7 control
PfCRT^3D7 [10]; [test solute]i = 5 mM (intracellular), PfCRT3D7 oocytes, normalised to oocyte type control, read-out: PfCRT-mediated [3H]CQ transport, trans-stimulation (% PfCRT3D7 control)
  activity at 5000 µM: 96 ± 2.8%
PfCRT^3D7 [10]; SEM, read-out: Uptake of [3H]CQ (% PfCRTDd2 control), trans-stimulation, PfCRT3D7
  activity at 45000 µM: 3.3 ± 0.05%
PfCRT^3D7 [10]; read-out: PfCRT-mediated [3H]CQ transport, trans-stimulation (% PfCRT3D7 control)
  activity at 45000 µM: 96 ± 2.1%
PfCRT^3D7 [10]; read-out: Uptake of [3H]CQ (% PfCRT3D7 control), trans-stimulation
  activity at 45000 µM: 98 ± 3%
PfCRT^3D7 [10]; total [3H]CQ transport, [test solute]i = 5 mM (intracellular), mean ± SEM, SEM, read-out: Uptake of [3H]CQ (% PfCRTDd2 control), trans-stimulation, PfCRT3D7
  activity at 5000 µM: 3.3 ± 0.01%
